Data published in BindingDB's records for doi:10.7270/Q2VX0F3D (Burnham Center For Chemical Genomics, 2012).

Target: T1, Corticotropin-releasing factor-binding protein (Homo sapiens, UniProt P24387)
T1 sequence (P24387 whole entry): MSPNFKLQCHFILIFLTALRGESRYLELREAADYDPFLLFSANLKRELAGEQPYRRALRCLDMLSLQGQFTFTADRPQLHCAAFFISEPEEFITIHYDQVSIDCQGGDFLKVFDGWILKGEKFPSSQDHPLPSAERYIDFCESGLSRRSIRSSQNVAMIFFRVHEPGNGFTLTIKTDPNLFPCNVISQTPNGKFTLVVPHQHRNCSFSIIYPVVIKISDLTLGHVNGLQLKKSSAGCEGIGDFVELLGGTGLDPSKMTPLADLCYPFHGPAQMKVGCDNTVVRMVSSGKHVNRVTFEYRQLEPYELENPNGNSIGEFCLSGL
Test: activators of CRF receptor 2 with binding protein – uHTS hits, confirmation (AID 602473)

Row | Compound | EC50
1 | COc1ccc(C2=c3cc(F)ccc3=NC(c3ccco3)=NN2)cc1 [7-fluoranyl-2-(furan-2-yl)-5-(4-methoxyphenyl)-4H-1,3,4-benzotriazepine] | > 53 µM
2 | N#CC(C(=O)c1cccc(F)c1)c1nc2ccccc2s1 (configuration not stated) [(2Z)-2-(3H-1,3-benzothiazol-2-ylidene)-3-(3-fluorophenyl)-3-keto-propionitrile] | > 53 µM
3 | N#CC(C(=O)Cc1cccc2ccccc12)c1nc2ccccc2s1 (configuration not stated) [(2Z)-2-(3H-1,3-benzothiazol-2-ylidene)-4-naphthalen-1-yl-3-oxobutanenitrile] | 3.14 µM
4 | N#CC(C1=NCCC1)c1nc2ccccc2c(=O)[nH]1 (configuration not stated) [(2Z)-2-(4-oxo-1H-quinazolin-2-yl)-2-(2-pyrrolidinylidene)acetonitrile] | > 53 µM
5 | O=NC1C(=O)N(Cc2c(Cl)cccc2Cl)c2ccccc21 (configuration not stated) [(3Z)-1-[(2,6-dichlorophenyl)methyl]-3-hydroxyimino-2-indolone] | 4.67 µM
6 | Cc1ccc2oc(=O)c(CC(=O)c3sc(C)nc3C)nc2c1 [(3Z)-3-[2-(2,4-dimethyl-1,3-thiazol-5-yl)-2-oxidanylidene-ethylidene]-6-methyl-4H-1,4-benzoxazin-2-one] | 7.67 µM
7 | Cc1ccc2oc(=O)c(CC(=O)c3ccco3)nc2c1 [(3Z)-3-[2-(2-furanyl)-2-oxoethylidene]-6-methyl-4H-1,4-benzoxazin-2-one] | 4.74 µM
8 | COc1ccc(C(=O)Cc2nc3ccccc3n(-c3ccccc3)c2=O)cc1 [(3Z)-3-[2-(4-methoxyphenyl)-2-oxidanylidene-ethylidene]-1-phenyl-4H-quinoxalin-2-one] | 7.85 µM
9 | Cc1ccc(C(=O)Cc2nc3ccccc3oc2=O)cc1 [(3Z)-3-[2-(4-methylphenyl)-2-oxidanylidene-ethylidene]-4H-1,4-benzoxazin-2-one] | 11.4 µM
10 | Cc1ccc2oc(=O)c(CC(=O)c3cccs3)nc2c1 [(3Z)-3-[2-keto-2-(2-thienyl)ethylidene]-6-methyl-4H-1,4-benzoxazin-2-one] | 4.87 µM
11 | O=C(Cc1nc2ccccc2n(-c2ccccc2)c1=O)c1ccccc1 [(3Z)-3-phenacylidene-1-phenyl-4H-quinoxalin-2-one] | 11.6 µM
12 | Cc1ccc2oc(=O)c(CC(=O)c3ccccc3)nc2c1 [(3Z)-6-methyl-3-(2-oxo-2-phenylethylidene)-3,4-dihydro-2H-1,4-benzoxazin-2-one] | 12.1 µM
13 | CCOc1ccc(C2C(C(=O)c3ccc4c(c3)OCCO4)C(=O)C(=O)N2CCCN2CCOCC2)cc1 (configuration not stated) [(4E)-4-[2,3-dihydro-1,4-benzodioxin-6-yl(oxidanyl)methylidene]-5-(4-ethoxyphenyl)-1-(3-morpholin-4-ylpropyl)pyrrolidine-2,3-dione] | > 53 µM
14 | CCCCN1C(=O)NC(=O)C(C(=O)C=Cc2c[nH]c3ccccc23)C1=O (configuration not stated) [(5Z)-1-butyl-5-[(E)-3-(1H-indol-3-yl)-1-oxidanyl-prop-2-enylidene]-1,3-diazinane-2,4,6-trione] | 6.02 µM
15 | O=CC(C=Nc1ccccn1)c1nc2cc(Cl)ccc2o1 (configuration not stated) [(Z)-2-(5-chloranyl-1,3-benzoxazol-2-yl)-3-(pyridin-2-ylamino)prop-2-enal] | > 53 µM
16 | N#CCSc1nnc(CNc2ccc(F)cc2)o1 [({5-[(4-fluoroanilino)methyl]-1,3,4-oxadiazol-2-yl}sulfanyl)acetonitrile] | > 53 µM
17 | COc1ccc(C2=Nc3nnnn3C(c3cccc(OC)c3)C2)cc1 (configuration not stated) [MLS000036434] | > 53 µM
18 | CCOC(=O)C1=C(C)N=C(SCC(=O)OC)C(C#N)C1c1ccc(C(=O)OC)cc1 (configuration not stated) [MLS000039154] | > 53 µM
19 | C=CCOC(=O)C1C(C)=NC2(O)c3ccccc3C(=O)C12O (configuration not stated) [MLS000068305] | > 53 µM
20 | Cc1c(Cl)ccc2c1NC(=O)C21NC(CCC(N)=O)c2c1c(O)n(-c1ccc(Cl)cc1)c2O (configuration not stated) [MLS000083515] | > 53 µM
21 | CCCC(NCC(=O)O)=C1C(=O)CC(C)(C)C(C(=O)OC)C1=O (configuration not stated) [MLS000108316] | > 53 µM

Row | Compound | EC50
22 | CSc1nnc(C)c(CC=Nc2ccc(C)cc2)n1 [MLS000326071] | 14.9 µM
23 | N#CC(C(=O)COC(=O)COc1cccc(Br)c1)c1nc2ccccc2[nH]1 (configuration not stated) [MLS000391269] | > 53 µM
24 | CC(=O)C1C(=O)C(=O)N(c2nccs2)C1c1ccccc1 (configuration not stated) [MLS000533923] | > 53 µM
25 | COC(=O)C1=C(C)N=C(C)C(C(=O)OC)C1/C=C/c1ccccc1 (configuration not stated) [MLS000571366] | > 53 µM
26 | COc1ccc(/C=N/OCC(=O)NNC2=c3cc(Br)ccc3=NC2=O)cc1 [MLS000587830] | > 53 µM
27 | Nc1[nH]c(=O)sc1C=C1C=CC(=O)C=C1 [MLS000697264] | > 53 µM
28 | CC1(C)CC(=O)C(=CNc2ccc(C(=O)c3ccccc3)cc2NC=C2C(=O)CC(C)(C)CC2=O)C(=O)C1 [MLS000724193] | > 53 µM
29 | Cn1c(SCC(=O)N/N=C/C2C=C([N+](=O)[O-])C=CC2=O)nnc1-c1ccccc1 (configuration not stated) [MLS000777077] | > 53 µM
30 | Cc1cc(C)n(CCC(=O)NNC2=c3cc(Br)ccc3=NC2=O)n1 [MLS000777238] | > 53 µM
31 | CC(=O)C1C(C)=NC(=S)NC1c1cc([N+](=O)[O-])ccc1O (configuration not stated) [MLS000777581] | > 53 µM
32 | O=C(Nn1c(O)csc1=S)c1cccnc1 [MLS000780148] | > 53 µM
33 | COc1ccc(C(C)N=Nc2ccc([N+](=O)[O-])cc2S(=O)(=O)Nc2ccccc2C(=O)O)c(OC)c1 (configuration not stated) [MLS002249507] | 38.6 µM
34 | Cn1c(O)c(N=Nc2ccc([N+](=O)[O-])cc2)sc1=S [MLS002608645] | 1.69 µM
35 | CN(C)c1ccc(C=Nn2c(O)csc2=S)c(Cl)c1 [MLS002919800] | > 53 µM
36 | Oc1csc(=S)n1N=Cc1c(F)cccc1Cl [MLS002919802] | > 53 µM
37 | Cc1cc2c(cc1Br)=NC(=O)C=2NNC(=O)C1CC1c1ccccc1 (configuration not stated) [N'-(6-bromo-5-methyl-2-oxo-3-indolyl)-2-phenyl-1-cyclopropanecarbohydrazide] | > 53 µM
38 | COc1ccccc1NS(=O)(=O)c1ccc(N=NCc2c(C)nn(-c3ccccc3)c2N2CCCC2)c([N+](=O)[O-])c1 [N-(2-methoxyphenyl)-4-[(2E)-2-[(3-methyl-1-phenyl-5-pyrrolidin-1-yl-pyrazol-4-yl)methylidene]hydrazinyl]-3-nitro-benzenesulfonamide] | > 53 µM
39 | Cc1noc(NS(=O)(=O)c2ccc(N=CCC(=O)c3cccc4ccccc34)cc2)c1C [N-(3,4-dimethyl-1,2-oxazol-5-yl)-4-[[(Z)-3-naphthalen-1-yl-3-oxidanylidene-prop-1-enyl]amino]benzenesulfonamide] | > 53 µM
40 | Cc1ccc(C)c2sc(NC(=O)c3ccc(-n4c(O)ccc4O)cc3)nc12 [N-(4,7-dimethyl-1,3-benzothiazol-2-yl)-4-(2,5-dioxopyrrolidin-1-yl)benzamide] | > 53 µM
41 | CN1c2ccccc2C(=O)C(C(=S)Nc2ccc(Cl)cc2)S1(=O)=O (configuration not stated) [N-(4-chlorophenyl)-4-hydroxy-1-methyl-2,2-dioxo-1,2-dihydro-2lambda~6~,1-benzothiazine-3-carbothioamide] | > 53 µM
42 | CCCCN(C(=O)c1ccc2c(c1)S(=O)(=O)NC1=CCCCCN12)c1c(N)n(CCCC)c(=O)[nH]c1=O [N-(6-amino-1-butyl-2,4-dioxo-5-pyrimidinyl)-N-butyl-5,5-dioxo-8,9,10,11-tetrahydro-7H-azepino[2,1-c][1,2,4]benzothiadiazine-3-carboxamide] | > 53 µM

Row | Compound | EC50
43 | CCC(C)(C)NC(=O)C(c1ccccc1F)N(Cc1ccco1)C(=O)c1csnn1 (configuration not stated) [N-[1-(2-fluorophenyl)-2-(2-methylbutan-2-ylamino)-2-oxoethyl]-N-(2-furanylmethyl)-4-thiadiazolecarboxamide] | 15.6 µM
44 | O=NCc1ccc(Oc2ccc(F)cc2)c([N+](=O)[O-])c1 [N-[[4-(4-fluorophenoxy)-3-nitrophenyl]methylidene]hydroxylamine] | > 53 µM
45 | COC(=O)C1=Nc2nnnn2C(c2ccc(O)c(OC)c2)C1C(=O)c1ccccc1 (configuration not stated) [SMR000020111] | > 53 µM
46 | COc1ccc(C2=Nc3nnnn3C(c3ccc(C)cc3)C2)cc1 (configuration not stated) [SMR000035317] | > 53 µM
47 | CCc1ccccc1-n1c(O)c2c(c1O)CC(C)=C(C)C2 [SMR000104383] | > 53 µM
48 | CC(=CN=Nc1nc(C)cc(C)n1)Cc1ccc(C(C)C)cc1 [SMR000146220] | > 53 µM
49 | Cc1[nH]c2ccccc2c1/C=C1\N=C(c2ccc(C(F)(F)F)cc2)OC1=O [SMR000152363] | 10.2 µM
50 | Cc1ccc(-n2[nH]c(C)c(CN=Nc3ccc([N+](=O)[O-])cc3[N+](=O)[O-])c2=O)cc1 [SMR000171521] | > 53 µM
51 | Cc1ccc(S(=O)(=O)N(CC(=O)NNC2=c3ccccc3=NC2=O)c2ccc(C)c(C)c2)cc1 [SMR000207608] | > 53 µM
52 | Cc1ccc(CSC(=Nc2ccc(F)cc2)C(C#N)C#N)cc1 [SMR000217751] | > 53 µM
53 | Cc1nn(-c2ccccc2)c(N2CCCC2)c1CN=Nc1ccc(S(N)(=O)=O)cc1[N+](=O)[O-] [SMR000243538] | > 53 µM
54 | COc1ccc(C(=O)C2C(=O)C(=O)N(CCN(C)C)C2c2cccnc2)cc1C (configuration not stated) [SMR000287983] | > 53 µM
55 | COc1ccc(C2c3c(n(C)c(=O)n(C)c3=O)N=C3CC(C)(C)CC(=O)C32)cc1OC (configuration not stated) [SMR000291470] | > 53 µM
56 | O=C1C=Cc2cc(=C3C=CCC=N3)c(=O)oc2=C1CN1CCN(CCO)CC1 [SMR000298878] | 6.05 µM
57 | O=c1nncc(N=NC=CCc2ccccc2)[nH]1 [SMR000413415] | > 53 µM
58 | Nc1ccccc1Sc1cc(O)n(-c2ccc3c(c2)OCO3)c1O [SMR000459840] | > 53 µM
59 | CC1=NC(=O)NC(c2cccc3ccccc23)C1C(=O)OC(C)(C)C (configuration not stated) [SMR000543036] | > 53 µM
60 | COc1ccc(Cn2cc(O)n(-c3cccc(Cl)c3)c2=S)cc1OC [SMR000564410] | > 53 µM
61 | Cc1cc(C)cc(NC(=O)c2ccc(-n3c(O)c4c(c3O)CCCC4)cc2)c1 [SMR000664971] | > 53 µM
62 | COc1cccc(C2C(C(=O)c3ccc(C)o3)C(=O)C(=O)N2CCN2CCOCC2)c1OC (configuration not stated) [SMR000665042] | > 53 µM
